According to publication PMC4553411, “Identification of B6T173 (ZmPrx35) as the prevailing peroxidase in highly insect-resistant maize (Zea mays, p84C3) kernels by activity-directed purification” (Frontiers in Plant Science, 2015):

Molecular target: T1, B6T173 (ZmPrx35) (Zea mays, UniProt B6T173)
T1 construct: recombinant from p84C3 cDNA, amplified from start codon to stop codon, pET19b (His-tag), E. coli BL21 (DE3) Rosetta gami; class III peroxidase
Assay: in-gel guaiacol-H2O2 activity staining of IMAC fractions
Type: biochemical
Details: H2O2 co-substrate; 20 mM guaiacol, 50 mM phosphate pH 6.8

T1 sequence (B6T173 1-339): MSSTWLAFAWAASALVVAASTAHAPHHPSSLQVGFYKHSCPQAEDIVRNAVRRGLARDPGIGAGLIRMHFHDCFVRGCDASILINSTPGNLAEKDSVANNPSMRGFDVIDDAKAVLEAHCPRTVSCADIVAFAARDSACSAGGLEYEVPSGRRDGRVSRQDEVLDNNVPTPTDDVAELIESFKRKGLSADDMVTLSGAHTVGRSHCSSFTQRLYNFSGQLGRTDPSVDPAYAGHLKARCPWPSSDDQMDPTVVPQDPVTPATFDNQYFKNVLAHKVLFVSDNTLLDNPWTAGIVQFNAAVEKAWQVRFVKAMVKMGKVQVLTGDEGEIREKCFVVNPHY

## COc1ccccc1O [guaiacol]
  in-gel guaiacol-H2O2 activity staining of IMAC fractions: Guaiacol-H2O2 staining of the same POD fractions
